{
  "source": "patent US20210009673A1",
  "about": "“METHODS FOR REGULATING BREAST CANCERS” (priority 2018, published 2021)",
  "key": {"[1]": {"test_system": "ALK", "assay": "ALK activation in MDA-MB-231 cells stably transfected with dominant negative PTN (anti-ALK phosphotyrosine 1586/1604 Western blot)", "type": "cell-based, human", "conditions": "cells expressing dominant negative PTN vs empty vector", "procedure": "FIG. 18: FIG. 18 illustrates: that a dominant negative PTN blocks ALK activation. MDA-MB-231 cells were transfected with an empty vector or cDNA encoding a dominant negative PTN 1-40. Cell lysates were prepared and analyzed in Western blots probed with anti-phospho-ALK tyrosine 1586/1604 (left two lanes) or separately with anti-ALK antibodies (right two lanes). Arrows point full length ALK (200 kDa) and activated ALK phosphotyrosines 1586/1604.\nTo test whether ALK is activated through the PTN/RPTPβ/ζ signaling pathway in MDA-MB-231 cells, lysates from MDA-MB-231 cells, stably transfected with dominant negative PTN, were first analyzed in Western blots probed with anti-ALK and with anti-ALK phosphotyrosine 1586/1604 antibodies specific for activated ALK (Bai, Dieter et al. 1998, Mol Cell Biol 18(12): 6951-61). Anti-ALK phosphotyrosines 1586/1604 immunoreactive proteins were only identified in lysates from MDA-MB-231 empty vector cells, consistent with results above and supporting ALK is activated in cells with an activated PTN/RPTPβ/ζ signaling pathway.\nThe vector pcDNA3.1/PTN1-40 was constructed by inserting the cDNA fragment encoding residues −32 to 40 of human PTN protein into XbaI and BamHI of pcDNA3.1/myc-his/hygro vector (Invitrogen)."}, "[2]": {"test_system": "MMTV-PyMT mouse breast cancers", "assay": "breast cancer progression in MMTV-PyMT-PTN 1-40 bi-transgenic mice", "type": "in vivo", "excerpt": "The MMTV LTP promoter and human cDNA encoding PTN 1-40 (residue −32 to residue 40) was amplified using PCR from pcDNA3.1-Ptn (constructed by our laboratory). After restriction enzyme digestion, MMTV LTR and Ptn 1-40 cDNA were inserted into EcoR V, Not I and EcoR I site of pIRES-EGFP (BD clontech). The sequence of the final transgene construction (MMTV-PTN-IRES-EGFP) was verified by nucleotide sequencing. The transgene construction was freed of the bacterial sequences by digestion with EcoR V and Xho I, producing a 4.0-kb linear DNA fragment. The 4.0-kb linear DNA that was injected into the fertilized eggs of FVB mice consisted of the MMTV-LTR, PTN 1-40 cDNA, IRES (internal ribosomal entry site), EGFP cDNA, SV40 poly-adenylation sequences. Tail DNA from weaning mice derived from the transgene-injected eggs was analyzed by PCR. The mice were housed in animal facility of The Scripps Research Institute and were maintained according to NIH guidelines for the Care and Use of Laboratory Animals.\nFVB/N-Tg(MMTV-PyVT)634Mul/J transgenic mice were purchased from Jackson laboratory. They develop spontaneous metastatic mammary carcinomas and have been described in before. […] Transgenic animals were genotyped using PCR analysis of genomic DNA obtained from tails. When possible, litter mates with both genotypes were used in the same experiment.\nMice were examined daily seeking mammary tumors by eye examination and finger palpation after 5 weeks of age. The tumors fully formed on the mammary glands were excised and weighed in 12-14 weeks old mice depending on the tumor size in bi-transgenic mice. Tumor length (L) and width (W) were measured 3 times a week using calipers. Tumor volume was estimated using the formula (L×W2)/2. Total wet tumor weight was weighed by scale when the tumors were excised from sacrificed mice.\nThe tumor tissue excised from euthanized animals was fixed in 10% buffered formalin and embedded in paraffin. The specimens were sectioned, stained with H&E, and Masson trichrome stain for collagen fibers.\nTumor tissue was fixed by 4% paraformaldehyde in phosphate-buffered saline (PBS). After PBS rinse, the tissues were cryoprotected with 30% sucrose in PBS at […] overnight, then infiltrated with a mixture of 1 parts 30% sucrose phosphate buffer to 1 part Histo Prep™ Frozen tissue embedding media (Fisher Scientific) for ½ hour at room temperature before infiltration with 100% Histo Prep™ and freezing. Cryosections ([…]) were cut and immunohistochemistry was performed using rat anti-mouse CD31 (PECAM-1. BD Pharmingen) antibodies. IMD (number of vessels/mm2) was obtained by counting CD31+ vessels in 10 random fields at ×200 magnification.\nReverse transcription was done using […] total RNA in the presence of 50 ng random hexamers using Ominscipt kit (Qiagen) following manufacturer's recommendations. Real time PCR was done using ICycler (BIORAD). The amplification conditions were: one cycle of 95° C.°, 3 min followed by 40 cycles of 95 C°, 30 sec and 60 C°, 15 sec. GAPDH was used as internal control. The fold changes relative to GAPDH was calculated using the formula: Fold Change=2 L (Ct Target1-CtTarget2)/2 L (Ct GAPDH1-CtGAPDH2) Where: Ct is the threshold of cycle number. Target is the gene measured. Number 1 and 2 represent different samples."}, "[3]": {"test_system": "MDA-MB-231 cell xenograft", "conditions": "ectopic expression; Zhang, Zhong et al. 1997; cited from earlier work"}},
  "note": "No end group written: not given here.",
  "data": [
    {"substance": "dominant negative PTN: mutant PTN (residues 1-40) forming mixed disulfide linked heterodimers with wild-type PTN; expressed from cDNA or transgene (GKKEKPEKKVKKSDCGEWQWSVCVPTSGDCGLGTREGTRT; also: forms mixed disulfide linked heterodimers with wild-type PTN; UniProt P21246 33-72, looked up, fragment)", "values": [
      {"measurement": "anti-ALK phosphotyrosines 1586/1604 immunoreactive proteins", "setting": "[1]", "result": "essentially non-identifiable"},
      {"measurement": "percentage area of adenoma/MIN", "setting": "[2]; 13-week mice, 2% in MMTV-PyMT, p=0.017", "result": 12, "unit": "%"},
      {"measurement": "percentage area occupied by early carcinoma", "setting": "[2]; 13-week mice, 20% in MMTV-PyMT, p=0.045", "result": 41, "unit": "%"},
      {"measurement": "percentage area occupied by later carcinoma", "setting": "[2]; 13-week mice, 78% in MMTV-PyMT, P=0.024", "result": "about 45%"},
      {"measurement": "foci of scirrhous carcinoma", "setting": "[2]; MMTV-PyMT-PTN 1-40 bi-transgenic mouse breast cancers", "result": "not seen"},
      {"measurement": "average intratumor microvessel density (IMD)", "setting": "[2]; about 30 in MMTV-PyMT, P<0.05", "result": "about 18 blood vessels/mm2"},
      {"measurement": "tropoelastin and protocollagen mRNA levels (RT-PCR)", "setting": "[2]; compared with MMTV-PyMT mice", "result": "not statistically different"},
      {"measurement": "activated fibroblasts in breast cancers", "setting": "[2]; compared with MMTV-PyMT-Ptn and MMTV-PyMT mice", "result": "marked reduction"},
      {"measurement": "MDA-MB-231 cell xenograft growth in nude mice", "setting": "[3]", "result": "prevented MDA-MB-231 cell xenograft growth"}
    ]}
  ]
}
